Results as given in US9555040B2, “Methods of treating proliferative diseases” (Ambit Biosciences Corporation, priority 2009, dated 2017).

Columns and labels:
[1] = Phase I clinical trial: plasma pharmacokinetics; format: in vivo, human
Protocol: In addition, plasma samples were collected on day 15 (˜24 hrs post final dose) to evaluate steady-state trough levels. Bioanalysis of the compound was initially conducted at Consolidated Laboratory Services (CLS), Van Nuys, Calif. […] The coefficient of variation (CV %) for AUCO-24 at steady-state is modest at the lowest dose of 12 mg (33%) and high for the 450 mg cohort (82%). While the variability tended to be higher at higher doses, there was not a clear relationship between variability and either dose or […].
This analysis was conducted at MicroConstants, San Diego, Calif.

[2] = Animal toxicology studies; format: in vivo
pSTAT5 = experiment: Pharmacodynamics: pSTAT5 in patient samples; format: in vivo, human; conditions: subset of 17 patients, very preliminary
From the text: STATS is a downstream signaling pathway activated by FLT3 following binding of FLT3 ligand leading to receptor dimerization, increased kinase activity and activation of downstream signaling pathways including STATS.

[3] = test system: relapsed or refractory acute myeloid leukemia; experiment: Phase I clinical trial: efficacy, responses per modified Cheson criteria; format: in vivo, human
Protocol: The study was open labeled and designed to determine the safety, tolerability, dose limiting toxicity (DLT), pharmacokinetics and pharmacodynamics of escalating doses.
The study included adult patients with relapsed or refractory AML, or unsuitable for induction chemotherapy.
Patients with clinical benefit were allowed to continue for additional cycles at the discretion of the investigator. The protocol was subsequently amended to allow for continuous dosing of the compound starting at 200 mg on Day 1.
Preliminary response data was evaluated in all 76 patients treated with the compound.
Responses were defined per modified Cheson criteria.

[4] = Phase I clinical trial: safety, tolerability, dose limiting toxicity; format: in vivo, human
From the text: This study was the first human clinical trial of the compound of Formula I or a pharmaceutically acceptable salt or solvate thereof in humans having relapsed or refractory acute myeloid leukemia. The study was open labeled and designed to determine the safety, tolerability, dose limiting toxicity (DLT), pharmacokinetics and pharmacodynamics of escalating doses.
The study included adult patients with relapsed or refractory AML, or unsuitable for induction chemotherapy. Demographics and baseline characteristics were as follows: median age was 60 years, with a range of 23-86 years. Sixty percent of the patients were male. […] Eleven (15%) patients had prior allogeneic hematopoietic stem cell transplant (HSCT) and 13 (17%) patients had secondary AML with antecedent MDS or MDS/MPD. A total of 20 patients had FLT3 mutations (17 ITD and 3 D835), 43 were wild-type, and 13 were undetermined.
Patients with clinical benefit were allowed to continue for additional cycles at the discretion of the investigator. The protocol was subsequently amended to allow for continuous dosing of the compound starting at 200 mg on Day 1. In addition to patients included in the 200 mg (17 patients) and 300 mg (8 patients) continuous dosing cohort, there were at least 8 patients who, at the investigators discretion and per protocol, received continuous dosing after cycle 1 of intermittent dosing ranging from 19-187 days.
In addition, the safety profile was similar between patients receiving continuous dosing and those on the intermittent schedule. These included general disorders (e.g., pyrexia and fatigue), gastrointestinal disorders (e.g., nausea, diarrhea and vomiting) and hematologic disorders (eg, anemia, neutropenia and thrombocytopenia).
Out of the 76 patients treated with the compound in this study, 38 patients (50%) reported a total of 94 serious adverse events (SAEs) (defined as CTC Grade 3 or greater). The majority of the SAEs were considered by the investigator to be not related to study treatment. Only 6 patients (7.9%) reported SAEs that were initially considered to be related to treatment with the compound. These included one patient with lung infection, one patient with vomiting and one patient with nausea, anorexia, and upper abdominal pain. The investigator subsequently revised the event of anorexia for the patient to non-serious. In addition, three patients were noted by the site investigators using local ECG analysis to have reported Grade 3 QTc prolongation of >500 ms which was considered to be a dose-limiting toxicity for the study according to the protocol.
Based on the site reported dose-limiting toxicity of Grade 3 QTc prolongation, a detailed evaluation of the cardiac safety of the compound was conducted. As defined in the protocol, a single 12-lead electrocardiogram (ECG) had been performed using standardized equipment at the site at Visits 1 (screen), 2 (Baseline—at Hours 0, 2, and 4), 4 (Day 8 at Hours 0 and 4), and depending on the version of the protocol active at the time of assessment for each patient, 6 (Day 14 or 15), 7 (Day 21 or 22), 8 (Day 28 or 29), 9 (Day 36), 10 (Day 43), 11 (Day 50), 12 (Day 57) and at the end of the study or early termination. ECG assessments and interpretations initially were performed by the site's cardiologist or other qualified site personnel. To improve upon the accuracy of these locally-analyzed data, a central digitized blinded analysis of all ECGs collected to date was undertaken by a core ECG laboratory (EResearchTechnology in Philadelphia, Pa.). Due to some issues with readability, 72 patients (out of 76 patients enrolled in the study) were included in this analysis. […] The phase I study was not designed to define the ECG effects of the compound, which will be more closely monitored in the phase II study.

[5] = FLT3-ITD patients, 200 mg continuous dosing (n=5)
[6] = patients with FLT3-ITD mutation (n=17)

SMILES: CC(C)(C)c1cc(NC(=O)Nc2ccc(-c3cn4c(n3)sc3cc(OCCN5CCOCC5)ccc34)cc2)no1 [compound of formula I, N-(5-tert-butyl-isoxazol-3-yl)-N′-{4-[7-(2-morpholin-4-yl-ethoxy)imidazo[2,1-b][1,3]benzothiazol-2-yl]phenyl}urea]
- dose dependence of steady-state plasma exposure (AUC) ([1]; human, in vivo): increased in a dose proportional manner
- peak and trough variation of plasma levels ([1]; human, in vivo): minimal peak and trough variation
- time to steady-state plasma exposure ([1]; human, in vivo): ≤ 8 days
- coefficient of variation (CV %) for AUC0-24 at steady-state ([1]; human, in vivo, 12 mg): 33%
- coefficient of variation (CV %) for AUC0-24 at steady-state ([1]; human, in vivo, 450 mg): 82%
- half-life ([1]; human, in vivo, effective half-life): ~36 h
- oral bioavailability ([1]; human, in vivo, po): orally bioavailable
- half-life ([1]; human, in vivo, terminal T1/2): 31.2 h
- target organ toxicity [2]: Bone marrow hypocellularity
- effect on pSTAT5 (pSTAT5): dose-dependent effect is consistent with that observed with pFLT3
- bone marrow responses within the first 29 days of treatment (Cycle 1) ([3]; 15/22 responders): 68%
- CR [3, 5]: 1 patients
- CRi [3, 5]: 1 patients
- CRp [3, 5]: 1 patients
- PR [3, 5]: 2 patients
- overall response rate (CR+CRp+CRi+PR) ([3]; FLT3-ITD patients, 200 mg continuous dosing, 5/5): 100%
- CR with complete hematologic recovery ([3]; all 76 patients): 2 patients
- CR with incomplete platelet and neutrophil recovery (CRi) ([3]; all 76 patients): 4 patients
- CR with incomplete platelet recovery (CRp) ([3]; all 76 patients): 4 patients
- patients achieving complete remission (CR, all types) ([3]; all 76 patients): Ten
- patients with partial remission (PR) ([3]; all 76 patients): Fourteen
- peripheral blast reduction (>25% at baseline with >50% decrease post-treatment to 0-25%) ([3]; all patients): most patients had a peripheral blast reduction
- overall response (CR+PR) ([3]; all patients, 12 mg-450 mg, 24/76): 32%
- patients reporting a response after Cycle 2 ([3]; of the remaining 7 responders): 3 patients
- patients reporting a response within 57 days (Cycle 2) ([3]; of the remaining 7 responders): 4 patients
- CR [3, 6]: 1 patients
- CRi [3, 6]: 3 patients
- CRp [3, 6]: 1 patients
- PR [3, 6]: 6 patients
- overall response rate ([3]; patients with FLT3-ITD mutation, 11/17): 65%
- median duration of remission ([3]; range, 4 to 61+ weeks): 14.1 weeks
- 30-day treatment-related mortality ([4]; 76 patients, to date): no 30-day treatment-related mortality
- patients who died during the study ([4]; all deaths disease or comorbidity associated, not treatment related): 12 patients
- grade of the majority of treatment-related adverse events ([4]; both, human, in vivo): CTC Grade 1 and 2
- patients reporting SAEs initially considered related to treatment ([4]; both, human, in vivo): 7.9%
- patients reporting serious adverse events (CTC Grade 3 or greater) ([4]; both, human, in vivo): 50%
- total number of serious adverse events reported ([4]; both, human, in vivo): 94
- liver or kidney abnormalities as drug-related serious adverse events (BUN, creatinine, ALT, AST, ALP, bilirubin) ([4]; human, in vivo): no liver or kidney abnormalities
- patients with Grade 3 QTc prolongation of >500 ms (dose-limiting toxicity) ([4]; human, in vivo): three

SMILES: CC(C)(CO)c1cc(NC(=O)Nc2ccc(-c3cn4c(n3)sc3cc(OCCN5CCOCC5)ccc34)cc2)no1 [compound of formula II]
- average steady state plasma ratio of formula II/I ([1]; human plasma, n=60): 0.4
- plasma ratio of compounds of formula II/I, highest in one patient ([1]; human plasma, n=60): ≤ 3.14
- steady-state plasma level ([1]; patients dosed at 200 mg of the compound of formula I): ~300 ng/mL
